US12728099B2, “Formulation to deliver lipophilic active ingredients” (priority 2020, dated 2026)
In brackets after ≈: the same amount, converted by molar mass. Read-outs that look alike come from different tables or passages of the source.

How the values were obtained:
[1] = cited from earlier work
[2] = Dissolution rate in 1% aqueous sodium cholate solution (HPLC); assay type: physicochemical; details: 1% w/v sodium cholate, total 30 μg/mL
Experimental: Chromatogram recording was performed at 210 nm.

[3] = Particle size by light scattering; assay type: physicochemical
Experimental: The nanostructured PEA suspension obtained according to Example 1 was analyzed by light scattering to assess the size of the nanoparticles.

[4] = Morphology by scanning electron / optical microscopy; assay type: physicochemical; details: SEM or optical microscope
Experimental: Morphologically, scanning electron microscopy (SEM) analyses of both forms were performed.

[5] = Solubility in different dissolution media (HPLC); details: 25 °C, thermodynamic from solid

Dissolved PEA (dissolution rate) ([2]; 30 min): 3.31 ± 2.30 µg/mL
Dissolved PEA (dissolution rate) ([2]; 1 hour): 4.56 ± 1.02 µg/mL
Dissolved PEA (dissolution rate) ([2]; 2 hours): 6.15 ± 1.22 µg/mL
Dissolved PEA (dissolution rate) ([2]; 4 hours): 8.61 ± 0.68 µg/mL
Dissolved PEA (dissolution rate) ([2]; 6 hours): 9.31 ± 0.71 µg/mL
Size (nm ± SD) [3]: Macro and microscopic flakes
solubility at 24 h ([5]; demineralized water, water): < 0.1 µg/mL
solubility at 24 h ([5]; phosphate buffer, pH 7.4, aqueous buffer): 0.64 ± 0.05 µg/mL (≈ 2.14 µM)
solubility at 24 h ([5]; simulated intestinal fluid, pH 6.8, fassgf or other biorelevant): 0.22 ± 0.03 µg/mL (≈ 0.735 µM)
solubility at 24 h ([5]; simulated pulmonary fluid, pH 7.4, fassgf or other biorelevant): 0.8 ± 0.12 µg/mL (≈ 2.67 µM)
SMILES: CCCCCCCCCCCCCCCC(=O)NCCO [Raw PEA, Palmitoylethanolamide]
Solubility ([1]; methanol, ethanol, and isopropyl alcohol): poorly soluble
Solubility ([1]; water, oils, and most common organic solvents): practically insoluble
Morphology / obtainment of nanostructures [4]: irregular macroscopic agglomerates (a few tens of microns)
